ChEMBL document CHEMBL3351292, “Structure-Based Design and Synthesis of Potent Cyclic Peptides Inhibiting the YAP-TEAD Protein-Protein Interaction” (ACS Med Chem Lett, 2014)
pIC50: −log10 of the molar value. Where a SMILES comes first, the peptide text is derived from it. Bridges are numbered along the chain shown (N, C = ends). [ ]: non-standard residue; d: D form. hCys = N[C@@H](CCS)C(=O)O

The compounds below were run against Transcriptional coactivator YAP1/Transcriptional enhancer factor TEF-1 (Homo sapiens) (UniProt P46937+P28347) (assay: Inhibition of YAP/ GST-TEAD1 (unknown origin) interaction at 50 uM by surface plasmon resonance assay).
Transcriptional coactivator YAP1/Transcriptional enhancer factor TEF-1 (Homo sapiens), sequence (P28347 whole entry, looked up): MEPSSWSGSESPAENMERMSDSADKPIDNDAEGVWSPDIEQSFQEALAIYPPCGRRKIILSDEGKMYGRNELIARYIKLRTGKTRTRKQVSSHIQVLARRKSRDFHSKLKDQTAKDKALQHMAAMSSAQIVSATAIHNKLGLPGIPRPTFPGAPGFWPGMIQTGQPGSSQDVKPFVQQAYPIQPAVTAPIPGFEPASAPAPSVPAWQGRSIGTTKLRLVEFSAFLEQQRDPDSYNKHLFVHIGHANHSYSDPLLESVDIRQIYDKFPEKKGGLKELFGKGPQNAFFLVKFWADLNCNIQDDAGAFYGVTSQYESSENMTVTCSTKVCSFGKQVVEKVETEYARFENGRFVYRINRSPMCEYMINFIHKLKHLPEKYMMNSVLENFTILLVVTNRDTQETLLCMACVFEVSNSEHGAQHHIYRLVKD
Transcriptional coactivator YAP1/Transcriptional enhancer factor TEF-1 (Homo sapiens), sequence (P46937 whole entry, looked up): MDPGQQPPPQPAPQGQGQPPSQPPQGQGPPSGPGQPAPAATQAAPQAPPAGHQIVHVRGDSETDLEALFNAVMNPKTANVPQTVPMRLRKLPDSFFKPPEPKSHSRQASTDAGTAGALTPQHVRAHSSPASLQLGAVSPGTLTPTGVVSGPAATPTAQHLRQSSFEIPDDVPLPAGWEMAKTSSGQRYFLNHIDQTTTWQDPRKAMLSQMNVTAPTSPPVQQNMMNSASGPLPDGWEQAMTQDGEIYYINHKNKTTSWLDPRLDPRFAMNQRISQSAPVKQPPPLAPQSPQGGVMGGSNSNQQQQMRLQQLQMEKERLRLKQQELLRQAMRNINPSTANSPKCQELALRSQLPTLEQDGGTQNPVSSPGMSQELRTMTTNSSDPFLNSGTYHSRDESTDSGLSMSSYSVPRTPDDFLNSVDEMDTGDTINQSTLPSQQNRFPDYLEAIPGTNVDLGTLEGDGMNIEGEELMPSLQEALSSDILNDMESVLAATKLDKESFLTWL
Assay type: protein assay

| inhibition [%] | SMILES |
| --- | --- |
| 83 | CSCC[C@H](NC(=O)[C@@H]1CCCN1C(=O)[C@@H](NC(=O)[C@@H](NC(=O)[C@H](CCC(N)=O)NC(=O)[C@@H]1CCCN1C(C)=O)[C@@H](C)O)C(C)C)C(=O)N[C@@H](CCCNC(=N)N)C(=O)N[C@@H](CC(C)C)C(=O)N[C@@H](CCCNC(=N)N)C(=O)N[C@@H](CCCCN)C(=O)N[C@@H](CC(C)C)C(=O)N1CCC[C@H]1C(=O)N[C@@H](C)C(=O)N[C@@H](CO)C(=O)N[C@@H](Cc1ccccc1)C(=O)N[C@@H](Cc1ccccc1)C(=O)N[C@@H](CCCCN)C(=O)N1CCC[C@H]1C(=O)N1CCC[C@H]1C(=O)N[C@@H](CCC(=O)O)C(N)=O (Ac-PQTVPMRLRKLPASFFKPPE-NH2) |
| 42 | CSCC[C@H](NC(=O)[C@@H]1CCCN1C(=O)[C@@H](NC(=O)[C@@H](NC(=O)[C@H](CCC(N)=O)NC(=O)[C@@H]1CCCN1C(C)=O)[C@@H](C)O)C(C)C)C(=O)N[C@@H](CCCNC(=N)N)C(=O)N[C@@H](CC(C)C)C(=O)N[C@@H](CCCNC(=N)N)C(=O)N[C@@H](CCCCN)C(=O)N[C@@H](CC(C)C)C(=O)N1CCC[C@H]1C(=O)N[C@@H](CC(=O)O)C(=O)N[C@@H](CO)C(=O)N[C@@H](Cc1ccccc1)C(=O)N[C@@H](Cc1ccccc1)C(=O)N[C@@H](CCCCN)C(=O)N1CCC[C@H]1C(N)=O (Ac-PQTVPMRLRKLPDSFFKP-NH2) |
| 52 | CSCC[C@H](NC(=O)[C@@H]1CCCN1C(=O)[C@@H](NC(=O)[C@@H](NC(=O)[C@H](CCC(N)=O)NC(=O)[C@@H]1CCCN1C(C)=O)[C@@H](C)O)C(C)C)C(=O)N[C@@H](CCCNC(=N)N)C(=O)N[C@@H](CC(C)C)C(=O)N[C@@H](CCCNC(=N)N)C(=O)N[C@@H](CCCCN)C(=O)N[C@@H](CC(C)C)C(=O)N1CCC[C@H]1C(=O)N[C@@H](CC(=O)O)C(=O)N[C@@H](CO)C(=O)N[C@@H](Cc1ccccc1)C(=O)N[C@@H](Cc1ccccc1)C(=O)N[C@@H](CCCCN)C(=O)N1CCC[C@H]1C(=O)N1CCC[C@H]1C(N)=O (Ac-PQTVPMRLRKLPDSFFKPP-NH2) |
| 12 | CC(=O)N[C@@H](CCCNC(=N)N)C(=O)N[C@@H](CC(C)C)C(=O)N[C@@H](CCCNC(=N)N)C(=O)N[C@@H](CCCCN)C(=O)N[C@@H](CC(C)C)C(=O)N1CCC[C@H]1C(=O)N[C@@H](CC(=O)O)C(=O)N[C@@H](CO)C(=O)N[C@@H](Cc1ccccc1)C(=O)N[C@@H](Cc1ccccc1)C(=O)N[C@@H](CCCCN)C(=O)N1CCC[C@H]1C(=O)N1CCC[C@H]1C(=O)N[C@@H](CCC(=O)O)C(N)=O (Ac-RLRKLPDSFFKPPE-NH2) |

The compounds below were run against Transcriptional coactivator YAP1/Transcriptional enhancer factor TEF-1 (Homo sapiens, UniProt P28347) (assay: Inhibition of YAP/ GST-TEAD1 (unknown origin) interaction by surface plasmon resonance assay).
Transcriptional coactivator YAP1/Transcriptional enhancer factor TEF-1, sequence (P46937 whole entry): as the sequence (P46937 whole entry, looked up) above
Transcriptional coactivator YAP1/Transcriptional enhancer factor TEF-1, sequence (P28347 whole entry): as the sequence (P28347 whole entry, looked up) above
Assay type: protein assay

| SMILES | pIC50 |
| --- | --- |
| CSCC[C@H](NC(=O)[C@@H]1CCCN1C(=O)[C@@H](NC(C)=O)C(C)C)C(=O)N[C@H]1CCSSC[C@@H](C(=O)N[C@@H](CCCCN)C(=O)N2CCC[C@H]2C(=O)N2CCC[C@H]2C(=O)N[C@@H](CCC(=O)O)C(N)=O)NC(=O)[C@H](Cc2ccccc2)NC(=O)[C@H](CO)NC(=O)[C@H](CC(=O)O)NC(=O)[C@@H]2CCCN2C(=O)[C@H](CC(C)C)NC(=O)[C@H](CCCCN)NC(=O)[C@H](CCCNC(=N)N)NC(=O)[C@H](CC(C)C)NC1=O | 5.16 |
| CSCC[C@H](NC(=O)[C@@H]1CCCN1C(=O)[C@@H](NC(C)=O)C(C)C)C(=O)N[C@H]1CCSSC[C@@H](C(=O)N[C@@H](CCCCN)C(=O)N2CCC[C@H]2C(=O)N2CCC[C@H]2C(=O)N[C@@H](CCC(=O)O)C(N)=O)NC(=O)[C@H](Cc2ccccc2)NC(=O)[C@H](CO)NC(=O)[C@H](C)NC(=O)[C@@H]2CCCN2C(=O)[C@H](CC(C)C)NC(=O)[C@H](CCCCN)NC(=O)[C@H](CCCNC(=N)N)NC(=O)[C@H](CC(C)C)NC1=O | 5.82 |
| CCCCCC[C@@H]1NC(=O)[C@H](CCCCN)NC(=O)[C@H](CCCNC(=N)N)NC(=O)[C@H](CC(C)C)NC(=O)[C@@H](NC(=O)[C@H](CCSC)NC(=O)[C@@H]2CCCN2C(=O)[C@@H](NC(C)=O)C(C)C)CCSSC[C@@H](C(=O)N[C@@H](CCCCN)C(=O)N2CCC[C@H]2C(=O)N2CCC[C@H]2C(=O)N[C@@H](CCC(=O)O)C(N)=O)NC(=O)[C@H](Cc2ccccc2)NC(=O)[C@H](CO)NC(=O)[C@H](C)NC(=O)[C@@H]2CCCN2C1=O | 6.43 |
| CSCC[C@H](NC(=O)[C@@H]1CCCN1C(=O)[C@@H](NC(C)=O)C(C)C)C(=O)N[C@H]1CCSSC[C@@H](C(=O)N[C@@H](CCCCN)C(=O)N2CCC[C@H]2C(=O)N2CCC[C@H]2C(=O)N[C@@H](CCC(=O)O)C(N)=O)NC(=O)[C@H](Cc2ccccc2)NC(=O)[C@H](CO)NC(=O)[C@H](C)NC(=O)[C@@H]2CCCN2C(=O)[C@H](CCC(C)C)NC(=O)[C@H](CCCCN)NC(=O)[C@H](CCCNC(=N)N)NC(=O)[C@H](CC(C)C)NC1=O | 6.21 |
| CSCC[C@H](NC(=O)[C@@H]1CCCN1C(=O)[C@@H](NC(C)=O)C(C)C)C(=O)N[C@H]1CCSSC[C@@H](C(=O)N[C@@H](CCCCN)C(=O)N2CCC[C@H]2C(=O)N2CCC[C@H]2C(=O)N[C@@H](CCC(=O)O)C(N)=O)NC(=O)[C@H](Cc2ccccc2)NC(=O)[C@H](CO)NC(=O)[C@H](C)NC(=O)[C@@H]2CCCN2C(=O)[C@H](CCCC(C)C)NC(=O)[C@H](CCCCN)NC(=O)[C@H](CCCNC(=N)N)NC(=O)[C@H](CC(C)C)NC1=O | 6.51 |
| CCCC[C@H](NC(=O)[C@@H]1CCCN1C(=O)[C@@H](NC(C)=O)C(C)C)C(=O)N[C@H]1CCSSC[C@@H](C(=O)N[C@@H](CCCCN)C(=O)N2CCC[C@H]2C(=O)N2CCC[C@H]2C(=O)N[C@@H](CCC(=O)O)C(N)=O)NC(=O)[C@H](Cc2ccccc2)NC(=O)[C@H](CO)NC(=O)[C@H](C)NC(=O)[C@@H]2CCCN2C(=O)[C@H](CCCC)NC(=O)[C@H](CCCCN)NC(=O)[C@H](CCCNC(=N)N)NC(=O)[C@H](CC(C)C)NC1=O | 6.47 |
| CCCC[C@@H]1NC(=O)[C@H](CCCCN)NC(=O)[C@H](CCCNC(=N)N)NC(=O)[C@H](CC(C)C)NC(=O)[C@@H](NC(=O)[C@H](CCSC)NC(=O)[C@@H]2CCCN2C(=O)[C@@H](NC(C)=O)C(C)C)CCSSC[C@@H](C(=O)N[C@@H](CCCCN)C(=O)N2CCC[C@H]2C(=O)N2CCC[C@H]2C(=O)N[C@@H](CCC(=O)O)C(N)=O)NC(=O)[C@H](Cc2ccc(F)cc2)NC(=O)[C@H](CO)NC(=O)[C@H](C)NC(=O)[C@@H]2CCCN2C1=O | 7.12 |
| CSCC[C@H](NC(=O)[C@@H]1CCCN1C(=O)[C@@H](NC(C)=O)C(C)C)C(=O)N[C@H]1CSSC[C@@H](C(=O)N[C@@H](CCCCN)C(=O)N2CCC[C@H]2C(=O)N2CCC[C@H]2C(=O)N[C@@H](CCC(=O)O)C(N)=O)NC(=O)[C@H](Cc2ccccc2)NC(=O)[C@H](CO)NC(=O)[C@H](CC(=O)O)NC(=O)[C@@H]2CCCN2C(=O)[C@H](CC(C)C)NC(=O)[C@H](CCCCN)NC(=O)[C@H](CCCNC(=N)N)NC(=O)[C@H](CC(C)C)NC1=O (Ac-VPMCLRKLPDSFCKPPE-NH2; disulfide 4-13) | < 4.00 |
| CSCC[C@H](NC(=O)[C@@H]1CCCN1C(=O)[C@@H](NC(C)=O)C(C)C)C(=O)N[C@H]1CCSSCC[C@@H](C(=O)N[C@@H](CCCCN)C(=O)N2CCC[C@H]2C(=O)N2CCC[C@H]2C(=O)N[C@@H](CCC(=O)O)C(N)=O)NC(=O)[C@H](Cc2ccccc2)NC(=O)[C@H](CO)NC(=O)[C@H](CC(=O)O)NC(=O)[C@@H]2CCCN2C(=O)[C@H](CC(C)C)NC(=O)[C@H](CCCCN)NC(=O)[C@H](CCCNC(=N)N)NC(=O)[C@H](CC(C)C)NC1=O (Ac-VPM[hCys]LRKLPDSF[hCys]KPPE-NH2; disulfide 4-13) | < 4.00 |

Now from value to compound:

| pIC50 | SMILES |
| --- | --- |
| 7.39 | CCCCC[C@H](NC(=O)[C@@H]1CCCN1C(=O)[C@@H](NC(C)=O)C(C)C)C(=O)N[C@H]1CCSSC[C@@H](C(=O)N[C@@H](CCCCN)C(=O)N2CCC[C@H]2C(=O)N2CCC[C@H]2C(=O)N[C@@H](CCC(=O)O)C(N)=O)NC(=O)[C@H](Cc2ccccc2)NC(=O)[C@H](CO)NC(=O)[C@H](C)NC(=O)[C@@H]2CCCN2C(=O)[C@H](CCCC)NC(=O)[C@H](CCCCN)NC(=O)[C@H](CCCNC(=N)N)NC(=O)[C@H](CC(C)C)NC1=O |
| 6.46 | CCCC[C@@H]1NC(=O)[C@H](CCCCN)NC(=O)[C@H](CCCNC(=N)N)NC(=O)[C@H](CC(C)C)NC(=O)[C@@H](NC(=O)[C@H](Cc2ccccc2)NC(=O)[C@@H]2CCCN2C(=O)[C@@H](NC(C)=O)C(C)C)CCSSC[C@@H](C(=O)N[C@@H](CCCCN)C(=O)N2CCC[C@H]2C(=O)N2CCC[C@H]2C(=O)N[C@@H](CCC(=O)O)C(N)=O)NC(=O)[C@H](Cc2ccccc2)NC(=O)[C@H](CO)NC(=O)[C@H](C)NC(=O)[C@@H]2CCCN2C1=O |
| 6.42 | CCCC[C@@H]1NC(=O)[C@H](CCCCN)NC(=O)[C@H](CCCNC(=N)N)NC(=O)[C@H](CC(C)C)NC(=O)[C@@H](NC(=O)[C@H](Cc2ccccc2Cl)NC(=O)[C@@H]2CCCN2C(=O)[C@@H](NC(C)=O)C(C)C)CCSSC[C@@H](C(=O)N[C@@H](CCCCN)C(=O)N2CCC[C@H]2C(=O)N2CCC[C@H]2C(=O)N[C@@H](CCC(=O)O)C(N)=O)NC(=O)[C@H](Cc2ccccc2)NC(=O)[C@H](CO)NC(=O)[C@H](C)NC(=O)[C@@H]2CCCN2C1=O |
| 6.28 | CCCC[C@@H]1NC(=O)[C@H](CCCCN)NC(=O)[C@H](CCCNC(=N)N)NC(=O)[C@H](CC(C)C)NC(=O)[C@@H](NC(=O)[C@H](Cc2ccc(Cl)cc2)NC(=O)[C@@H]2CCCN2C(=O)[C@@H](NC(C)=O)C(C)C)CCSSC[C@@H](C(=O)N[C@@H](CCCCN)C(=O)N2CCC[C@H]2C(=O)N2CCC[C@H]2C(=O)N[C@@H](CCC(=O)O)C(N)=O)NC(=O)[C@H](Cc2ccccc2)NC(=O)[C@H](CO)NC(=O)[C@H](C)NC(=O)[C@@H]2CCCN2C1=O |
| 4.60 | CSCC[C@H](NC(=O)[C@@H]1CCCN1C(=O)[C@@H](NC(=O)[C@@H](NC(=O)[C@H](CCC(N)=O)NC(=O)[C@@H]1CCCN1C(C)=O)[C@@H](C)O)C(C)C)C(=O)N[C@@H](CCCNC(=N)N)C(=O)N[C@@H](CC(C)C)C(=O)N[C@@H](CCCNC(=N)N)C(=O)N[C@@H](CCCCN)C(=O)N[C@@H](CC(C)C)C(=O)N1CCC[C@H]1C(=O)N[C@@H](C)C(=O)N[C@@H](CO)C(=O)N[C@@H](Cc1ccccc1)C(=O)N[C@@H](Cc1ccccc1)C(=O)N[C@@H](CCCCN)C(=O)N1CCC[C@H]1C(=O)N1CCC[C@H]1C(=O)N[C@@H](CCC(=O)O)C(N)=O (Ac-PQTVPMRLRKLPASFFKPPE-NH2) |
| 4.07 | CSCC[C@H](NC(=O)[C@@H]1CCCN1C(=O)[C@@H](NC(C)=O)C(C)C)C(=O)N[C@H]1CSSCC[C@@H](C(=O)N[C@@H](CCCCN)C(=O)N2CCC[C@H]2C(=O)N2CCC[C@H]2C(=O)N[C@@H](CCC(=O)O)C(N)=O)NC(=O)[C@H](Cc2ccccc2)NC(=O)[C@H](CO)NC(=O)[C@H](CC(=O)O)NC(=O)[C@@H]2CCCN2C(=O)[C@H](CC(C)C)NC(=O)[C@H](CCCCN)NC(=O)[C@H](CCCNC(=N)N)NC(=O)[C@H](CC(C)C)NC1=O (Ac-VPMCLRKLPDSF[hCys]KPPE-NH2; disulfide 4-13) |
